Measurements as given in patent publication US20110028479A1, “SUBSTITUTED PYRROLOTRIAZINES AND THEIR USE” (BAYER SCHERING PHARMA AKTIENGESELLSCHAFT, priority 2007, published 2011).

Molecular target: T1, Prostacyclin Receptors (IP Receptors) of Human Thrombocyte Membranes (Homo sapiens, UniProt P43119)
T1 construct: Thrombocyte membranes are obtained by centrifuging 50 ml of human blood; tissue Maco Pharma, Langen (buffy coats); host or cells: human thrombocyte (platelet) membranes prepared from human blood
T1 sequence (P43119 whole entry): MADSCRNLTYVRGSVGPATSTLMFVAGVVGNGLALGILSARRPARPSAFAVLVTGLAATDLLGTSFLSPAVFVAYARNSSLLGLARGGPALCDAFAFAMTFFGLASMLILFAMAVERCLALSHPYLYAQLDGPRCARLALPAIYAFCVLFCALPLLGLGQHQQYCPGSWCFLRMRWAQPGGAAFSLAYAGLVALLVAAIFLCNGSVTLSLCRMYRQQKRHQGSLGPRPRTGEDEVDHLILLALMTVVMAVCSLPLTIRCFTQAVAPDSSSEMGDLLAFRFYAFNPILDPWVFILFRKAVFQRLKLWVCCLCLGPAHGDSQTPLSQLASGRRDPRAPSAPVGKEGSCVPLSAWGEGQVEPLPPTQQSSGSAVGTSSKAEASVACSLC
Assay: Binding to prostacyclin receptors (IP receptors) of human thrombocyte membranes, 3H-Iloprost displacement
Details: 3 nM 3H-Iloprost, 60 min, room temperature
Protocol: B-1. Studies of Binding to Prostacyclin Receptors (IP Receptors) of Human Thrombocyte Membranes
Thrombocyte membranes are obtained by centrifuging 50 ml of human blood (Buffy coats with CDP Stabilizer, from Maco Pharma, Langen) for 20 min at 160×g. Remove the supernatant (platelet-rich plasma, PRP) and then centrifuge again at 2000×g for 10 min at room temperature. Resuspend the sediment in 50 mM tris(hydroxymethyl)aminomethane, which has been adjusted to a pH of 7.4 with 1 N hydrochloric acid, and store at −20° C. overnight. On the next day, centrifuge the suspension at 80 000×g and 4° C. for 30 min. Discard the supernatant. […]
For the binding test, incubate 3 nM ^3H-Iloprost (592 GBq/mmol, from AmershamBioscience) for 60 min with 300-1000 μg/ml of human thrombocyte membranes per charge (max. 0.2 ml) in the presence of the test substances at room temperature. […] After adding Ultima Gold Scintillator, quantify the radioactivity bound to the membranes using a scintillation counter. The nonspecific binding is defined as radioactivity in the presence of 1 μM Iloprost (from Cayman Chemical, Ann Arbor) and is as a rule <25% of the bound total radioactivity. The binding data (IC50 values) are determined using the program GraphPad Prism Version 3.02.

Row | IC50 [nM] | Structure (SMILES)
1 | 636 | COc1ccc(-c2c(-c3ccccc3)cn3ncnc(NCCCCCC(=O)O)c23)cc1 [Example 3]
2 | 224 | COc1ccc(-c2c(-c3ccccc3)cn3ncnc(O[C@H](C)CCCCC(=O)O)c23)cc1 [Example 4, (6R)-6-{[5-(4-methoxyphenyl)-6-phenylpyrrolo[2,1-f][1,2,4]triazin-4-yl]oxy}heptanoic acid]
